This is an account of results in US9301951B2 (Ardelyx, Inc., priority 2010, dated 2016).

For the first test, the target named is T1, rat NaP2b (SLC34A2) (Rattus norvegicus, UniProt Q9JJ09).
T1 construct: host or cells: HEK293
T1 sequence (Q9JJ09 1-695): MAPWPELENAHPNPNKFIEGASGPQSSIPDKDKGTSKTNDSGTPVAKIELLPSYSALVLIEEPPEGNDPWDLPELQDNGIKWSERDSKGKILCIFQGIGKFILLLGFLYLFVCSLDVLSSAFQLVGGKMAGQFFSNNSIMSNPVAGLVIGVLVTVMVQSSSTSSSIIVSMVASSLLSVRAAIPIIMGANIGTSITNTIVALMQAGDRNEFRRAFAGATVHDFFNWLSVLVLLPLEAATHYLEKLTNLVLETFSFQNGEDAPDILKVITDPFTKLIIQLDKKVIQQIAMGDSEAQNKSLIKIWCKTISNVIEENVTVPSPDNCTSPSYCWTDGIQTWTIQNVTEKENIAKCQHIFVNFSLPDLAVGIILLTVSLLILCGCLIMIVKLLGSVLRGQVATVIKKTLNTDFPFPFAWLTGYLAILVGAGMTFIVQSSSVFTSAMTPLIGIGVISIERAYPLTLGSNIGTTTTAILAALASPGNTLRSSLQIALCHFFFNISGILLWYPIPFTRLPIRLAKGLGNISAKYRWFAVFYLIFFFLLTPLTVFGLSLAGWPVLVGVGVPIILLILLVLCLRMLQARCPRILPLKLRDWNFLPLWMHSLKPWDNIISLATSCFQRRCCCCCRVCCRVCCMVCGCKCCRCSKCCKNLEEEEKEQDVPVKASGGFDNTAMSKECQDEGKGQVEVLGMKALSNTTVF
Nature of the test: Inhibition of NaP2b-mediated Pi (33P) uptake in transfected HEK293 cells, rat NaP2b. In kind it is cell-based. The settings on record: HEK293 cells transfected with rat NaP2b, 100 uM phosphate, 0.1 nM to 30 uM, read-out: pIC50 range for rat Nap2b (converted). On the procedure: (§1) HEK293 cells were obtained from the American Type Culture collection and propagated per their instructions. Expression clones for rat and human NaP2b (SLC34A2) were obtained from Open Biosystems (Catalog numbers MRN1768-9510282, and MHS1010-99823026, respectively). The sequence of the human protein was mutated to insert a threonine after residue 37, and to introduce a N39D mutation.
(§2) Cells were seeded into 96-well plates at 25,000 cells/well and cultured overnight. Lipofectamine 2000 (Invitrogen) was used to introduce the NaP2b cDNA, and the cells were allowed to approach confluence during a second overnight incubation. […] Cells were then overlayed with either choline uptake buffer or sodium uptake buffer (14 mM Tris, 137 mM sodium chloride, 5.4 mM KCl, 2.8 mM CaCl2, 1.2 mM MgSO4, 100 uM KH2PO4, PiT-silencing agent, 1 mg/mL Bovine Serum Albumin, pH 7.4) containing 6-9 uCi/mL ^33P orthophosphoric acid (Perkin Elmer) and test compound. Each compound was tested at twelve concentrations ranging from 0.1 nM to 30 uM. Assays were run in duplicate.
Cells were lysed by addition of 20 μL 0.1% Tween 80 followed by 100 μL scintillation fluid, and counted using a TopCount (Perkin Elmer).
(§3) pIC50 (the negative log of the […]) values of the test compounds were calculated using GraphPad Prism.
With `CN1CCN(CCN(C)Cc2cccc(C(=O)Nc3ccc(N4CCCCC4)cc3-c3cc(C(=O)NCc4cccc(C(F)(F)F)c4)ccn3)c2)CC1` [Example 40, 2-(2-(3-((Methyl(2-(4-methylpiperazin-1-yl)ethyl)amino)methyl)benzamido)-5-(piperidin-1-yl)phenyl)-N-(3-(trifluoromethyl)benzyl)isonicotinamide], the IC50 was 10 to 31.6 µM.
The same measure, in the same setting: to `CC(=O)N1CCN(CCN(C)Cc2cccc(C(=O)Nc3ccc(N4CCCCC4)cc3-c3cc(C(=O)NCc4ccccc4)ccn3)c2)CC1` [Example 41, 2-(2-(3-(((2-(4-Acetylpiperazin-1-yl)ethyl)(methyl)amino)methyl)benzamido)-5-(piperidin-1-yl)phenyl)-N-benzylisonicotinamide] belongs 10 to 31.6 µM.
Still for that read-out and setting: to `CC(C)(C)OC(=O)N1CCCN(Cc2cccc(C(=O)Nc3ccc(N4CCCCC4)cc3-c3cc(C(=O)NCc4cccc(C(F)(F)F)c4)ccn3)c2)CC1` [Example 44, tert-Butyl 4-(3-((4-(piperidin-1-yl)-2-(4-((3-(trifluoromethyl)benzyl)carbamoyl)pyridin-2-yl)phenyl)carbamoyl)benzyl)-1,4-diazepane-1-carboxylate] belongs 10 to 31.6 µM.
Same read-out and setting: then `CN1CCCN(Cc2cccc(C(=O)Nc3ccc(N4CCCCC4)cc3-c3cc(C(=O)NCc4cccc(C(F)(F)F)c4)ccn3)c2)CC1` [Example 45, 2-(2-(3-((4-Methyl-1,4-diazepan-1-yl)methyl)benzamido)-5-(piperidin-1-yl)phenyl)-N-(3-(trifluoromethyl)benzyl)isonicotinamide], with 10 to 31.6 µM; and `CC(=O)NC1CCN(Cc2cccc(C(=O)Nc3ccc(N4CCCCC4)cc3-c3cc(C(=O)NCc4cccc(C(F)(F)F)c4)ccn3)c2)CC1` [Example 46, 2-(2-(3-((4-Acetamidopiperidin-1-yl)methyl)benzamido)-5-(piperidin-1-yl)phenyl)-N-(3-(trifluoromethyl)benzyl)isonicotinamide], with 10 to 31.6 µM.
`CC(=O)N1CCCN(Cc2cccc(C(=O)Nc3ccc(N4CCCCC4)cc3-c3cc(C(=O)NCc4cccc(C(F)(F)F)c4)ccn3)c2)CC1` [Example 49, 2-(2-(3-((4-Acetyl-1,4-diazepan-1-yl)methyl)benzamido)-5-(piperidin-1-yl)phenyl)-N-(3-(trifluoromethyl)benzyl)isonicotinamide]: the IC50 is 1 to 7.94 µM.
Still for that read-out and setting: then `CC(=O)N1CCN(Cc2cccc(C(=O)Nc3ccc(N4CCCCC4)cc3-c3cc(C(=O)NCc4cccc(C(F)(F)F)c4)ccn3)c2)CC1` [Example 50, 2-(2-(3-((4-Acetylpiperazin-1-yl)methyl)benzamido)-5-(piperidin-1-yl)phenyl)-N-(3-(trifluoromethyl)benzyl)isonicotinamide], with 1 to 7.94 µM; and `COCCNC(=O)CCN(C)Cc1cccc(C(=O)Nc2ccc(N3CCCCC3)cc2-c2cc(C(=O)NCc3cccc(C(F)(F)F)c3)ccn2)c1` [Example 51, 2-(2-(3-(((3-((2-Methoxyethyl)amino)-3-oxopropyl)(methyl)amino)methyl)benzamido)-5-(piperidin-1-yl)phenyl)-N-(3-(trifluoromethyl)benzyl)isonicotinamide], with 1 to 7.94 µM; and `CN(Cc1cccc(C(=O)Nc2ccc(N3CCCCC3)cc2-c2cc(C(=O)NCc3cccc(C(F)(F)F)c3)ccn2)n1)C(=O)CN1CCOCC1` [Example 53, 6-((N-Methyl-2-morpholinoacetamido)methyl)-N-(4-(piperidin-1-yl)-2-(4-((3-(trifluoromethyl)benzyl)carbamoyl)pyridin-2-yl)phenyl)picolinamide], with 1 to 7.94 µM.
For `CCN(CC)c1ccc(NC(=O)c2cccc(C(=O)N(C)CCN3CCCN(C(=O)OCCOCCOCCOCCOCCOCCOCCOCCOCCOCCOCCOC)CC3)c2)c(-c2cc(C(=O)N[C@H]3CCCc4ccccc43)ccn2)c1` [Example 199, (S)-2,5,8,11,14,17,20,23,26,29,32-undecaoxatetratriacontan-34-yl 4-(2-(3-((4-(diethylamino)-2-(4-((1,2,3,4-tetrahydronaphthalen-1-yl)carbamoyl)pyridin-2-yl)phenyl)carbamoyl)-N-methylbenzamido)ethyl)-1,4-diazepane-1-carboxylate], the IC50 was 1 to 7.94 µM.
On the same count and under the same terms, to `CCN(CC)c1ccc(NC(=O)c2cccc(C(=O)N(C)CCN(C)CCOCCOCCOCCNC(=O)C(C)(C)C)c2)c(-c2cc(C(=O)NCc3cccc(C(F)(F)F)c3)ccn2)c1` [Example 346, N^1-(4-(diethylamino)-2-(4-(3-(trifluoromethyl)benzylcarbamoyl)pyridin-2-yl)phenyl)-N^3-methyl-N^3-(3,17,17-trimethyl-16-oxo-6,9,12-trioxa-3,15-diazaoctadecyl)isophthalamide] belongs 1 to 7.94 µM.

Another test addresses T2, human NaP2b (SLC34A2) (Homo sapiens, UniProt O95436).
T2 construct: host or cells: HEK293
T2 sequence (O95436 1-690): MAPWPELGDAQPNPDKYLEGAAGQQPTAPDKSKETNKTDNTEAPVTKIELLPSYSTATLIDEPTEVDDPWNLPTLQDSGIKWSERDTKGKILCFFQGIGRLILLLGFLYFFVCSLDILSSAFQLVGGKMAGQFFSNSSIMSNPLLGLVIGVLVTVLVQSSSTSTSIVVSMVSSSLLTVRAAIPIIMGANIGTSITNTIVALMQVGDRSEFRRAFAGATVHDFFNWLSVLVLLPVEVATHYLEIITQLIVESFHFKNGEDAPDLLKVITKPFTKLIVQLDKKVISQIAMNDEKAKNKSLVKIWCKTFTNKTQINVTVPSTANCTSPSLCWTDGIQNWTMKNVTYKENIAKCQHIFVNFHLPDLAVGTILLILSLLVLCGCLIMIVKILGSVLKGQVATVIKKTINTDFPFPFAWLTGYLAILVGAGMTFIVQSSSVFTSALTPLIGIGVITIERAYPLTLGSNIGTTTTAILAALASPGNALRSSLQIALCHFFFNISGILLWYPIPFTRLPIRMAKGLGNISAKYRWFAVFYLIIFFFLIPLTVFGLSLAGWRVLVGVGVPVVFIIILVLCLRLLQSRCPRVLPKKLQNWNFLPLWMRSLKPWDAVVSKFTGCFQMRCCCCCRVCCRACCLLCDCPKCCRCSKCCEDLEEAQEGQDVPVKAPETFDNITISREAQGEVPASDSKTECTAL
The experiment in a line: Inhibition of NaP2b-mediated Pi (33P) uptake in transfected HEK293 cells, human NaP2b. In kind it is cell-based. The conditions noted are these: HEK293 cells transfected with human NaP2b, 100 uM phosphate, 0.1 nM to 30 uM, read-out: pIC50 range for human NaP2b (converted). The protocol:
as §1
The rate of phosphate (Pi) uptake into HEK293 cells was measured using a modification of the method described by Mohrmann et al. (Mohrmann, I., Mohrmann, M., Biber, J., and Murer, H. (1986) Am. J. Phys. 250(3 Pt 1):G323-30.) Transfected HEK293 cells were treated with a pharmacological agent to minimize endogenous PiT-mediated phosphate transport activity, such that the only remaining sodium-dependent phosphate transport activity is that which was bestowed by introduction of the NaP2b genes.
as §2
After incubation for 3-30 minutes at room temperature, assay mixtures were removed, and the cells were washed twice with ice cold stop solution (137 mM sodium chloride, 14 mM Tris, pH 7.4). Cells were lysed by addition of 20 μL 0.1% Tween 80 followed by 100 μL scintillation fluid, and counted using a TopCount (Perkin Elmer).
as §3
`CN(CCN1CCC[C@H]1C(=O)N(C)CCOCCOCCOCCC(=O)OC(C)(C)C)C(=O)c1cccc(C(=O)Nc2ccc(N3CCCCC3)cc2-c2cc(C(=O)N[C@H]3CCCc4ccccc43)ccn2)c1` [Example 190, tert-Butyl 2-methyl-1-((S)-1-(2-(N-methyl-3-((4-(piperidin-1-yl)-2-(4-(((S)-1,2,3,4-tetrahydronaphthalen-1-yl)carbamoyl)pyridin-2-yl)phenyl)carbamoyl)benzamido)ethyl)pyrrolidin-2-yl)-1-oxo-5,8,11-trioxa-2-azatetradecan-14-oate]: the IC50 was 1 to 7.94 µM.
As to `CCN(CC)c1ccc(NC(=O)c2cccc(CCCOCCOCCOCCOCCC(=O)N(C)CCOCCOCCOCCOCCOCCOCCOC)c2)c(-c2cc(C(=O)NCc3cccc(C(F)(F)F)c3)ccn2)c1` [Example 259, 2-(5-(diethylamino)-2-(3-(23-methyl-24-oxo-2,5,8,11,14,17,20,27,30,33,36-undecaoxa-23-azanonatriacontan-39-yl)benzamido)phenyl)-N-(3-(trifluoromethyl)benzyl)isonicotinamide], the IC50 was 1 to 7.94 µM.
Turning to `CCN(CC)c1ccc(NC(=O)c2cccc(CCCOCCOCCOCCOCCC(=O)NCCOCCOCCOCCOCCOCCOCCOC)c2)c(-c2cc(C(=O)NCc3cccc(C(F)(F)F)c3)ccn2)c1` [Example 260, 2-(5-(diethylamino)-2-(3-(24-oxo-2,5,8,11,14,17,20,27,30,33,36-undecaoxa-23-azanonatriacontan-39-yl)benzamido)phenyl)-N-(3-(trifluoromethyl)benzyl)isonicotinamide], the IC50 is under 1 µM.
